Laboratory results reported in patent US20240279278A1, “NMU RECEPTOR 2 AGONISTS” (Boehringer Ingelheim International GmbH, priority 2023, published 2024).
Residues, ends and D or L forms follow the SMILES beside them.

Assays:
human NMUR1 receptor = biological target: T1, human NMUR1 receptor (Homo sapiens, UniProt Q9HB89); test: Radioligand binding competition assay (RLB), human NMUR1 receptor binding (SPA, [125I]-Neuromedin U-25); settings: CHO-K1 hNMUR1 cell membranes, 4 hours at RT
T1 construct: host or cells: CHO-K1
T1 sequence (Q9HB89 24-426 limits assumed): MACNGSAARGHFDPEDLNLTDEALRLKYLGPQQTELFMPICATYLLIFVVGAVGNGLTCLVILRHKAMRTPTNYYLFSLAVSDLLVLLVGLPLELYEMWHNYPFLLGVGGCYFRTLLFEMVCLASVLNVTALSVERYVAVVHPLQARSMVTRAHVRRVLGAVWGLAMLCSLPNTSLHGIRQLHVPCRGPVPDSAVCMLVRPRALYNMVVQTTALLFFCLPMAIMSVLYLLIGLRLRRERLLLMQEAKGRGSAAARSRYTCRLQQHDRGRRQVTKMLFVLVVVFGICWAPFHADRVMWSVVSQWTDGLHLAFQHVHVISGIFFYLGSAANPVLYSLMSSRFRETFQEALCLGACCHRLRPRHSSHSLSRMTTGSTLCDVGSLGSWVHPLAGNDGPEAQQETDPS
From the text: Example 2: Radioligand Binding Competition Assay (RLB) Human NMUR1 Receptor Binding 1) Membranes The test is based on membranes prepared from a human NMUR1/Apoaequorin Stable Cell Line (Creative Biogene, Cat. No. CSC-RG1308). Cell Line Description: CHO-NMUR1 cell line is clonally-derived from a CHO-K1 cell line, which has been transfected with a bicistronic expression plasmid containing the sequence coding for the human neuromedin U receptor 1 (NM_006056.4, 180 to 1391). Mosaic-ID: CL16550614 Membrane preparation: Cells were broken by nitrogen cavitation (900 psi, 1 hour). Intact cells were removed by centrifugation (400 rcf, 10 minutes, 4° C.) before the crude membrane fraction was collected by ultracentrifugation (20.000 rcf, 1 hour, 4° C.). 2) Human NMUR1 Receptor Binding Assay (Radioligand: [125l]-Neuromedin U-25) In this Scintillation Proximity Assay (SPA) design, the membranes immobilize directly to the PVT-WGA-PEI type A beads (polyethyleneimine treated polyvinyltoluene beads coupled to wheatgerm agglutinin, Perkin Elmer) via interactions of wheat germ agglutinate and glycosylated membrane structures. Thereby the radioactively la-belled ligand, bound to NMUR1 receptors on the membrane, comes in close proximity to the solid scintillator of the PVT bead. Radioactive human neuromedin U-25 then stimulates the scintillant to emit light. In contrast, radioligand not bound to the receptor is too distant from the bead to elicit a signal. For the Scintillation Proximity Assay the CHO-K1 hNMUR1 cell membranes and SPA-beads are diluted to concentrations, which assure a robust signal to background ratio. The SPA incubation buffer consists of 25 mM Hepes (pH=7.0), 5 mM MgCl2, 1 mM CaCl2, 10 ug/mL Saponine and 0.1% bovine serum albumin and is used for all dilutions. Final assay setup in 96-well plate: 20 μL of 10× test compound dilutions+40 μL of 5× [125l]-Neuromedin U-25 (1× approx. 30 pM; 2000 μCi/mmol (μCi=microcurie))+60 μL membrane dilution (approx. 1.0 μg membrane protein)+80 μL SPA bead dilution (250 μg). The assay is incubated for 4 hours at RT, including controls for specific binding where no displacer is added and non-specific binding by adding unlabeled hNMU-25 at 100 nM. Bound radioactivity is determined by scintillation counting (MicroBeta Trilux 1450, Perkin Elmer, detection of 125I decay). […] The system assumes one binding site with no relevant radioligand depletion (<10%) and that the binding is reversible and at equilibrium. [formula] [formula]

human NMUR2 receptor = human NMUR2 receptor (Homo sapiens, UniProt Q9GZQ4); test: IP1 Gq HTRF assay, activation of human NMUR2 in buffer; assay type: cell-based; design: expressed in transfected cells; host or cells: CHO-K1; settings: CHO-K1 cells expressing human NMUR2, stimulation buffer with 0.1% BSA; read-out: EC50 (hNMUR2) buffer
Sequence of human NMUR2 receptor (Q9GZQ4 whole entry): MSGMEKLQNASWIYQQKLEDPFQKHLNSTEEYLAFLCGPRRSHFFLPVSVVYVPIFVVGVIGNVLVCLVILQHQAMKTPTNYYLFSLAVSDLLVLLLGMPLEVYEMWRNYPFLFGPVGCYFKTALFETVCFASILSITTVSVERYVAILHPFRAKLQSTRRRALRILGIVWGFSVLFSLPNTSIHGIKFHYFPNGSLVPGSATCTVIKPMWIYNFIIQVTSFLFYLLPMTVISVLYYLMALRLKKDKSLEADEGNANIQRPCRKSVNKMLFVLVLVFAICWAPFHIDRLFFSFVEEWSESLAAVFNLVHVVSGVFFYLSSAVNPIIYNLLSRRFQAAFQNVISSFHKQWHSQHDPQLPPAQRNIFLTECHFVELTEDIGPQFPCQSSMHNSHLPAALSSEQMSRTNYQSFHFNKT
Method in brief: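 IP-One HTRF competition (665/620 nm ratio) read after 1 h agonist exposure at 37 °C in pH 7.4 HEPES/HBSS stimulation buffer containing 50 mM LiCl, 0.1% BSA, 1% DMSO. Cells: CHO-K1 stably expressing human NMUR2 or NMUR1. EC50 by 4-parameter nonlinear regression of 8-point curves.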

| SMILES | Ki (human NMUR1 receptor) [nM] | EC50 (human NMUR2 receptor) [nM] |
| --- | --- | --- |
| CCCC[C@H](NC(=O)[C@H](CC(C)C)N(C)C(=O)[C@H](Cc1ccccc1)NC(=O)[C@H](Cc1ccc(O)cc1)NC(=O)CN1CCN(CCNC(=O)CN(C)C(=O)CN(C)C(=O)CN(C)C(=O)CN(C)C(=O)CN(C)C(=O)CN(C)C(=O)CN(C)C(=O)CN(C)C(=O)CN(C)C(=O)CN(C)C(=O)CN(C)C(=O)CN(C)C(=O)CC[C@H](NC(=O)CC[C@H](NC(=O)CC[C@H](NC(=O)CCCCCCCCCCCCCCCCCCC(=O)O)C(=O)O)C(=O)O)C(=O)O)CC1)C(=O)N[C@@H](CCCNC(=N)N)C(=O)N1CCC[C@H]1C(=O)N[C@@H](CCCNC(=N)N)C(=O)NCC(N)=O [Compound 6, C20DA-gGlu3-Sar12-AEPipAc-Tyr-Phe-NMeLeu-Nle-Arg-Pro-Arg-Gly-NH2] | > 10000 | 2 |
| CCCC[C@H](NC(=O)[C@H](CC(C)C)N(C)C(=O)[C@H](Cc1ccccc1)NC(=O)[C@H](Cc1ccc(O)cc1)NC(=O)CN1CCN(CCNC(=O)CN(C)C(=O)CN(C)C(=O)CN(C)C(=O)CN(C)C(=O)CN(C)C(=O)CN(C)C(=O)CN(C)C(=O)CN(C)C(=O)CN(C)C(=O)CN(C)C(=O)CN(C)C(=O)CN(C)C(=O)CN(C)C(=O)CN(C)C(=O)CN(C)C(=O)CC[C@H](NC(=O)CC[C@H](NC(=O)CC[C@H](NC(=O)CCCCCCCCCCCCCCCCC(=O)O)C(=O)O)C(=O)O)C(=O)O)CC1)C(=O)N[C@@H](CCCN)C(=O)N(C)[C@@H](C)C(=O)N[C@@H](CCCNC(=N)N)C(=O)NCC(N)=O [Compound 22, C18DA-gGlu3-Sar15-AEPipAc-Tyr-Phe-NMeLeu-Nle-Orn-NMeAla-Arg-Gly-NH2] (HELM PEPTIDE1{[O=C(O)CCCCCCCCCCCCCCCCC(=O)[*:2]].[gGlu].[gGlu].[gGlu].[Sar].[Sar].[Sar].[Sar].[Sar].[Sar].[Sar].[Sar].[Sar].[Sar].[Sar].[Sar].[Sar].[Sar].[Sar].[O=C(CN1CCN(CCN[*:1])CC1)[*:2]].Y.F.[meL].[Nle].[Orn].[meA].R.G.[am]}$$$$V2.0) | > 10000 | 3.2 |
| CCCC[C@H](NC(=O)[C@H](CC(C)C)N(C)C(=O)[C@H](Cc1ccccc1)NC(=O)[C@H](Cc1ccc(O)cc1)NC(=O)CN1CCN(CCNC(=O)CN(C)C(=O)CN(C)C(=O)CN(C)C(=O)CN(C)C(=O)CN(C)C(=O)CN(C)C(=O)CN(C)C(=O)CN(C)C(=O)CN(C)C(=O)CC[C@H](NC(=O)CC[C@H](NC(=O)CC[C@H](NC(=O)CCCCCCCCCCCCCCCCCCC(=O)O)C(=O)O)C(=O)O)C(=O)O)CC1)C(=O)N[C@@H](CCCNC(=N)N)C(=O)N1CCC[C@H]1C(=O)N[C@@H](CCCNC(=N)N)C(=O)NCC(N)=O [Compound 65, C20DA-gGlu3-Sar9-AEPipAc-Tyr-Phe-NMeLeu-Nle-Arg-Pro-Arg-Gly-NH2] (HELM PEPTIDE1{[O=C(O)CCCCCCCCCCCCCCCCCCC(=O)[*:2]].[gGlu].[gGlu].[gGlu].[Sar].[Sar].[Sar].[Sar].[Sar].[Sar].[Sar].[Sar].[Sar].[O=C(CN1CCN(CCN[*:1])CC1)[*:2]].Y.F.[meL].[Nle].R.P.R.G.[am]}$$$$V2.0) | 722 | 2.8 |
| CCCC[C@H](NC(=O)[C@H](CC(C)C)N(C)C(=O)[C@H](Cc1ccccc1)NC(=O)[C@H](Cc1ccc(O)cc1)NC(=O)CN1CCN(CCNC(=O)CN(C)C(=O)CN(C)C(=O)CN(C)C(=O)CN(C)C(=O)CN(C)C(=O)CN(C)C(=O)CN(C)C(=O)CN(C)C(=O)CN(C)C(=O)CN(C)C(=O)CN(C)C(=O)CN(C)C(=O)CN(C)C(=O)CN(C)C(=O)CN(C)C(=O)CC[C@H](NC(=O)CC[C@H](NC(=O)CC[C@H](NC(=O)CCCCCCCCCCCCCCCCC(=O)O)C(=O)O)C(=O)O)C(=O)O)CC1)C(=O)N[C@@H](CCCN)C(=O)N1CCC[C@H]1C(=O)N[C@@H](CCCNC(=N)N)C(=O)NCC(N)=O [Compound 21, C18DA-gGlu3-Sar15-AEPipAc-Tyr-Phe-NMeLeu-Nle-Orn-Pro-Arg-Gly-NH2] (HELM PEPTIDE1{[O=C(O)CCCCCCCCCCCCCCCCC(=O)[*:2]].[gGlu].[gGlu].[gGlu].[Sar].[Sar].[Sar].[Sar].[Sar].[Sar].[Sar].[Sar].[Sar].[Sar].[Sar].[Sar].[Sar].[Sar].[Sar].[O=C(CN1CCN(CCN[*:1])CC1)[*:2]].Y.F.[meL].[Nle].[Orn].P.R.G.[am]}$$$$V2.0) | > 10000 | 2.6 |
| CCCC[C@H](NC(=O)[C@H](CC(C)C)N(C)C(=O)[C@H](Cc1ccccc1)NC(=O)[C@H](Cc1ccc(O)cc1)NC(=O)CN1CCN(CCNC(=O)CN(C)C(=O)CN(C)C(=O)CN(C)C(=O)CN(C)C(=O)CN(C)C(=O)CN(C)C(=O)CN(C)C(=O)CN(C)C(=O)CN(C)C(=O)CN(C)C(=O)CN(C)C(=O)CN(C)C(=O)CC[C@H](NC(=O)CC[C@H](NC(=O)CC[C@H](NC(=O)CCCCCCCCCCCCCCCCCCC(=O)O)C(=O)O)C(=O)O)C(=O)O)CC1)C(=O)N[C@@H](CCN)C(=O)N1CCC[C@H]1C(=O)N[C@@H](CCCNC(=N)N)C(=O)NCC(N)=O [Compound 8, C20DA-gGlu3-Sar12-AEPipAc-Tyr-Phe-NMeLeu-Nle-Dbu-Pro-Arg-Gly-NH2] | > 10000 | 3.1 |
| CCCC[C@H](NC(=O)[C@H](CC(C)C)N(C)C(=O)[C@H](Cc1ccccc1)NC(=O)[C@H](Cc1ccc(O)cc1)NC(=O)CN1CCN(CCNC(=O)CN(C)C(=O)CN(C)C(=O)CN(C)C(=O)CN(C)C(=O)CN(C)C(=O)CN(C)C(=O)CN(C)C(=O)CN(C)C(=O)CN(C)C(=O)CN(C)C(=O)CN(C)C(=O)CN(C)C(=O)CN(C)C(=O)CN(C)C(=O)CN(C)C(=O)CC[C@H](NC(=O)CC[C@H](NC(=O)CC[C@H](NC(=O)CCCCCCCCCCCCCCCCCCC(=O)O)C(=O)O)C(=O)O)C(=O)O)CC1)C(=O)N[C@@H](CCCNC(=N)N)C(=O)N1CCC[C@H]1C(=O)N[C@@H](CCCNC(=N)N)C(=O)NCC(N)=O [Compound 9, C20DA-gGlu3-Sar15-AEPipAc-Tyr-Phe-NMeLeu-Nle-Arg-Pro-Arg-Gly-NH2] (HELM PEPTIDE1{[O=C(O)CCCCCCCCCCCCCCCCCCC(=O)[*:2]].[gGlu].[gGlu].[gGlu].[Sar].[Sar].[Sar].[Sar].[Sar].[Sar].[Sar].[Sar].[Sar].[Sar].[Sar].[Sar].[Sar].[Sar].[Sar].[O=C(CN1CCN(CCN[*:1])CC1)[*:2]].Y.F.[meL].[Nle].R.P.R.G.[am]}$$$$V2.0) | > 10000 | 2.8 |
| CCCC[C@H](NC(=O)[C@H](CC(C)C)N(C)C(=O)[C@H](Cc1ccccc1)NC(=O)[C@H](Cc1ccc(O)cc1)NC(=O)CN1CCN(CCNC(=O)CN(C)C(=O)CN(C)C(=O)CN(C)C(=O)CN(C)C(=O)CN(C)C(=O)CN(C)C(=O)CN(C)C(=O)CN(C)C(=O)CN(C)C(=O)CC[C@H](NC(=O)CC[C@H](NC(=O)CC[C@H](NC(=O)CCCCCCCCCCCCCCCCC(=O)O)C(=O)O)C(=O)O)C(=O)O)CC1)C(=O)N[C@@H](CCN)C(=O)N(C)[C@@H](C)C(=O)N[C@@H](CCCNC(=N)N)C(=O)NCC(N)=O [Compound 28, C18DA-gGlu3-Sar9-AEPipAc-Tyr-Phe-NMeLeu-Nle-Dbu-NMeAla-Arg-Gly-NH2] (HELM PEPTIDE1{[O=C(O)CCCCCCCCCCCCCCCCC(=O)[*:2]].[gGlu].[gGlu].[gGlu].[Sar].[Sar].[Sar].[Sar].[Sar].[Sar].[Sar].[Sar].[Sar].[O=C(CN1CCN(CCN[*:1])CC1)[*:2]].Y.F.[meL].[Nle].[Dab].[meA].R.G.[am]}$$$$V2.0) | > 10000 | 1.4 |
